In patent US20210070748A1, “INHIBITORS OF BRUTONS TYROSINE KINASE” (Pharmacyclics LLC, priority 2015, published 2021):
Where two headings read alike, the source gives them in different places.

Molecular target: T1, BTK-WT (Homo sapiens, UniProt Q06187)
T1 construct: purified from insect cells as a full-length construct containing an N-terminal 6X-His tag; His6 (N); made in house; host or cells: insect cells (baculovirus Sf21 in Method B)
Assay: Btk in vitro inhibitory activity (one of Method A TR-FRET, Method B electrophoretic mobility shift, Method C radiometric filter binding)
Assay type: biochemical
Conditions: read-out: BTK-WT (IC50)
Description: Btk kinase activity is determined using a time-resolved fluorescence resonance energy transfer (TR-FRET) methodology. Measurements are performed in a reaction volume of 50 μL using 96-well assay plates. […] The reaction is quenched by the addition of 1.2 equivalents of EDTA (relative to divalent cation) in 25 μL of 1× Lance buffer (Perkin-Elmer). […] The TR-FRET signal is measured on a multimode plate reader with an excitation wavelength (λEx) of 330 nm and detection wavelengths (λEm) of 615 and 665 nm. Activity is determined by the ratio of the fluorescence at 665 nm to that at 615 nm. For each compound, enzyme activity is measured at various concentrations of compound. Negative control reactions are performed in the absence of inhibitor in replicates of six, and two no-enzyme controls are used to determine baseline fluorescence levels. Inhibition constants, Ki(app), were obtained using the program BatchKi(Kuzmic et al. (2000), Anal. Biochem. 286:45-50). IC50s are obtained according to the equation:
IC50={Ki(app)/(1+[ATP]/Km^ATP)}+[E]total/2;
Kinase activity is measured in vitro using electrophoretic mobility shift assay. The kinase reactions are assembled in a total volume of 25 μL in 384 well plates. […] The reaction is incubated for one hour and is quenched by the addition of 45 μL of termination buffer (100 mM HEPES, pH7.5, 0.01% Triton X-100, 30 mM EDTA). The terminated reactions are analyzed using 12 channel LabChip® 3000 microfluidic detection instrument (Caliper Life Sciences). […] Change in the relative fluorescence intensity of the substrate and product peaks is the parameter measured, reflecting enzyme activity. In the presence of an inhibitor, the ratio between product and substrate is altered: the signal of the product decreases, while the signal of the substrate increases.
Activity in each sample is determined as the product to sum ratio (PSR): P/(S+P), where P is the peak height of the product peptide and S is the peak height of the substrate peptide. For each compound, enzyme activity is measured at various concentrations (12 concentrations of compound spaced by 3× dilution intervals). Negative control samples (0%-inhibition in the absence of inhibitor) and positive control samples (100%-inhibition, in the presence of 20 mM EDTA) are assembled in replicates of four and are used to calculate %-inhibition values for each inhibitor at each concentration. Percent inhibition (Pinh) is determined using following equation:
Pinh=(PSR0%-PSRinh)/(PSR0%−PSR100%)*100, where PSRinh is the product sum ratio in the presence of inhibitor, PSR0% is the average product sum ration in the absence of inhibitor and PSR100% is the average product sum ratio in 100%-inhibition control samples;
The IC50 values of inhibitors are determined by 4 parameter sigmoidal dose-response model fitting of the inhibition curves (Pinh versus inhibitor concentration) using XLfit 4 software.
Human Btk kinase (Genbank accession # NP_000052) was purified from insect cells as a full-length construct containing an N-terminal 6X-His tag. Btk kinase activity was determined using a radiometric filter binding assay. Measurements are performed in a low μL reaction volume 384-well assay plates. […] IC50 values and curve fits were obtained using Prism (GraphPad Software).

T1 sequence (Q06187 whole entry): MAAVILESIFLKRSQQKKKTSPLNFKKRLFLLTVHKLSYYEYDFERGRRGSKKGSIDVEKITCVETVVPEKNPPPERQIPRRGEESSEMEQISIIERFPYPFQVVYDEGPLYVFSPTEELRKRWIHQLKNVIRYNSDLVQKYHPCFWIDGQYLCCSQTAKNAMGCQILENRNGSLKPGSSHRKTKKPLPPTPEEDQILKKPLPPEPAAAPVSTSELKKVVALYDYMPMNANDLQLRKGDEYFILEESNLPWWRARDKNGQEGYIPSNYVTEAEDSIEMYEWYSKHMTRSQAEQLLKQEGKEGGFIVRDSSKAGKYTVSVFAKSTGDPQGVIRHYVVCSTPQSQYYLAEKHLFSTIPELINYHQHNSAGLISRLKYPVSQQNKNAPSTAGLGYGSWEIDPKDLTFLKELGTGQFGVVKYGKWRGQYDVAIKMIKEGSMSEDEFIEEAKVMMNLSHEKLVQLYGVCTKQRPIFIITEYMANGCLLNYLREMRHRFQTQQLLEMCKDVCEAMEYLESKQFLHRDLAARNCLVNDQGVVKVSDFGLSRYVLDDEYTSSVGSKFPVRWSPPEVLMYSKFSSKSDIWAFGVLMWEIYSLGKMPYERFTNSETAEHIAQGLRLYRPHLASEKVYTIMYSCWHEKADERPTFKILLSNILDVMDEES

Row | SMILES | IC50 (Table 12, Formula C-I) [nM] | further results
1 | C=CC(=O)N[C@@H]1CCC[C@@H](Nc2nnc(C(N)=O)c(Nc3ccc(C(C)C)cc3)n2)C1 (racemic) [Example B-11, 3-((1R,3R)-3-acrylamido-cyclohexylamino)-5-(4-isopropylphenylamino)-1,2,4-triazine-6-carboxamide] | – | IC50 (Table 11, Formula B-I): ≤ 100 nM
2 | C=CC(=O)N[C@H]1CCC[C@@H](Nc2nnc(C(N)=O)c(Nc3ccc(C(C)C)cc3)n2)C1 (racemic) [Example B-12, 3-((1R,3S)-3-acrylamido-cyclohexylamino)-5-(4-isopropylphenylamino)-1,2,4-triazine-6-carboxamide] | – | IC50 (Table 11, Formula B-I): ≤ 100 nM
3 | C=CC(=O)N[C@@H]1CCCN(c2cnc(C(N)=O)c(Nc3cc(C)ns3)n2)C1 [Example A-86, (R)-5-(3-acrylamidopiperidin-1-yl)-3-(3-methylisothiazol-5-ylamino)pyrazine-2-carboxamide] | – | IC50 (Table 10, Formula A-I): ≤ 100 nM
4 | C=CC(=O)N[C@H]1CCCN(c2cnc(C(N)=O)c(Nc3cc(C)ns3)n2)C1 [Example A-87, (S)-5-(3-acrylamidopiperidin-1-yl)-3-(3-methylisothiazol-5-ylamino)pyrazine-2-carboxamide] | – | IC50 (Table 10, Formula A-I): ≤ 100 nM
5 | C=CC(=O)N[C@@H]1CCCN(c2cnc(C(N)=O)c(Nc3cccc(-c4ncccn4)c3)n2)C1 [Example A-88, (R)-5-(3-acrylamidopiperidin-1-yl)-3-(3-(pyrimidin-2-yl)phenylamino)pyrazine-2-carboxamide] | – | IC50 (Table 10, Formula A-I): 100 to 1000 nM
6 | C=CC(=O)N[C@H]1CCCN(c2cnc(C(N)=O)c(Nc3ccc(-c4ncccn4)cc3)n2)C1 [Example A-89, (S)-5-(3-acrylamidopiperidin-1-yl)-3-(4-(pyrimidin-2-yl)phenylamino)pyrazine-2-carboxamide] | – | IC50 (Table 10, Formula A-I): ≤ 100 nM
7 | C=CC(=O)N1CCCN(c2nnc(C(N)=O)c(Nc3ccc(C(C)C)cc3)n2)CC1 [Example A-90, 3-(4-acryloyl-1,4-diazepan-1-yl)-5-(4-isopropylphenylamino)-1,2,4-triazine-6-carboxamide] | – | IC50 (Table 10, Formula A-I): ≤ 100 nM
8 | C=CC(=O)N(C)[C@H]1CC[C@H](N(C)c2cnc(C(N)=O)c(Nc3cc(C)ns3)n2)CC1 [Example B-6, 5-(methyl((1r,4r)-4-(N-methylacrylamido)cyclohexyl)amino)-3-(3-methylisothiazol-5-ylamino)pyrazine-2-carboxamide] | – | IC50 (Table 11, Formula B-I): ≤ 100 nM
9 | C=CC(=O)N[C@H]1CCCC[C@H]1Nc1nnc(C(N)=O)c(Nc2ccc(C(C)C)cc2)n1 [Example B-7, 3-((1R,2S)-2-acrylamido-cyclohexylamino)-5-(4-isopropylphenylamino)-1,2,4-triazine-6-carboxamide] | – | IC50 (Table 11, Formula B-I): ≤ 100 nM
10 | C=CC(=O)N[C@@H]1CCCC[C@H]1Nc1nnc(C(N)=O)c(Nc2ccc(C(C)C)cc2)n1 [Example B-8, 3-((1R,2R)-2-acrylamido-cyclohexylamino)-5-(4-isopropylphenylamino)-1,2,4-triazine-6-carboxamide] | – | IC50 (Table 11, Formula B-I): ≤ 100 nM
11 | C=CC(=O)N[C@H]1CCCC[C@@H]1Nc1nnc(C(N)=O)c(Nc2ccc(C(C)C)cc2)n1 [Example B-9, 3-((1S,2S)-2-acrylamido-cyclohexylamino)-5-(4-isopropylphenylamino)-1,2,4-triazine-6-carboxamide] | – | IC50 (Table 11, Formula B-I): ≤ 100 nM
12 | C=CC(=O)N[C@@H]1CCCC[C@@H]1Nc1nnc(C(N)=O)c(Nc2ccc(C(C)C)cc2)n1 [Example B-10, 3-((1S,2R)-2-acrylamido-cyclohexylamino)-5-(4-isopropylphenylamino)-1,2,4-triazine-6-carboxamide] | – | IC50 (Table 11, Formula B-I): ≤ 100 nM

Continued, in another order:

Row | IC50 (Table 12, Formula C-I) [nM] | SMILES | further results
13 | ≤ 100 | C=CC(=O)N1CCC[C@H](Nc2nnc(C(N)=O)c(Nc3ccc(C(C)C)cc3)n2)C1 [Example C-17, (S)-3-(1-acryloylpiperidin-3-ylamino)-5-(4-isopropylphenylamino)-1,2,4-triazine-6-carboxamide] | –
14 | 100 to 1000 | CC(C)c1ccc(Nc2nc(N[C@H]3CCCN(C(=O)CN)C3)nnc2C(N)=O)cc1 [Example C-18, (S)-3-(1-(2-aminoacetyl)piperidin-3-ylamino)-5-(4-isopropylphenylamino)-1,2,4-triazine-6-carboxamide] | –
15 | 100 to 1000 | C=CC(=O)NCC(=O)N1CCC[C@H](Nc2nnc(C(N)=O)c(Nc3ccc(C(C)C)cc3)n2)C1 [Example C-19, (S)-3-(1-(2-acrylamidoacetyl)piperidin-3-ylamino)-5-(4-isopropylphenylamino)-1,2,4-triazine-6-carboxamide] | –
16 | 100 to 1000 | CC(C)c1ccc(Nc2nc(N[C@H]3CCCN(C(=O)CCCN)C3)nnc2C(N)=O)cc1 [Example C-20, (S)-3-(1-(4-aminobutanoyl)piperidin-3-ylamino)-5-(4-isopropylphenylamino)-1,2,4-triazine-6-carboxamide] | –
17 | 100 to 1000 | C=CC(=O)NCCCC(=O)N1CCC[C@H](Nc2nnc(C(N)=O)c(Nc3ccc(C(C)C)cc3)n2)C1 [Example C-21, (S)-3-(1-(4-acrylamidobutanoyl)piperidin-3-ylamino)-5-(4-isopropylphenylamino)-1,2,4-triazine-6-carboxamide] | –
18 | ≤ 100 | C=CC(=O)N1CCC(CNc2nnc(C(N)=O)c(Nc3ccc(C(C)C)cc3)n2)CC1 [Example C-22, 3-((1-acryloylpiperidin-4-yl)methylamino)-5-(4-isopropylphenylamino)-1,2,4-triazine-6-carboxamide] | –
19 | ≤ 100 | C=CC(=O)N1CCC[C@H](N(C)c2cnc(C(N)=O)c(Nc3ccc(C(C)C)cc3)n2)C1 [Example C-23, (S)-5-((1-acryloylpiperidin-3-yl)(methyl)amino)-3-(4-isopropylphenylamino)pyrazine-2-carboxamide] | –
20 | ≤ 100 | C=CC(=O)N1CCC(CN(C)c2cnc(C(N)=O)c(Nc3ccc(C(C)C)cc3)n2)CC1 [Example C-24, 5-(((1-acryloylpiperidin-4-yl)methyl)(methyl)amino)-3-(4-isopropylphenylamino)pyrazine-2-carboxamide] | –
21 | ≤ 100 | C=CC(=O)N1CCC[C@H](N(C)c2cnc(C(N)=O)c(Nc3cc(-c4ccccc4)ns3)n2)C1 [Example C-25, (S)-5-((1-acryloylpiperidin-3-yl)(methyl)amino)-3-(3-phenylisothiazol-5-ylamino)pyrazine-2-carboxamide] | –
22 | ≤ 100 | C=CC(=O)N1CCC[C@@H](Nc2nnc(C(N)=O)c(Nc3ccc(C(C)C)cc3)n2)C1 [Example C-26, (R)-3-(1-acryloylpiperidin-3-ylamino)-5-(4-isopropylphenylamino)-1,2,4-triazine-6-carboxamide] | –
23 | ≤ 100 | C=CC(=O)N1CCC[C@@H](N(C)c2nnc(C(N)=O)c(Nc3ccc(C(C)C)cc3)n2)C1 [Example C-27, (R)-3-((1-acryloylpiperidin-3-yl)(methyl)amino)-5-(4-isopropylphenylamino)-1,2,4-triazine-6-carboxamide] | –
24 | ≤ 100 | C=CC(=O)N1CCC[C@@H](Nc2nnc(C(N)=O)c(Nc3ccc(C(C)C)cc3)n2)[C@H]1C [Example C-28, 3-((2R,3R)-1-acryloyl-2-methylpiperidin-3-ylamino)-5-(4-isopropylphenylamino)-1,2,4-triazine-6-carboxamide] | –
